Legend:
experimental tumors = details: L. Nemeth et al., Arzneim.-Forsh./Drug Res. 28(II), 1119-1123 (1978); cited from earlier work
L1210 leukemia [1] = experiment: L1210 leukemia implanted intraperitoneally, i.p. treatment, survival (Experimental Example 3); format: in vivo, female CDF1 mice; details: for Average Survival Time / Life-Prolongation Ratio (%): once daily for seven days; for effectiveness against L1210 leukemia: i.p., all doses of Table 4
Description: (§1) The life-prolongation ratio was calculated by the following scheme (the same scheme is applied to the subsequent experimental examples).
(§2) Life-prolongation Ratio [formula] T : Average survival days of the treated group
(§3) C : Average survival days of the control group
(§4) Animals survived over 30 days or longer were estimated as 30-day survivors, and the cases where T/C equals to or greater than 125% were regarded as effective.
A plurality of groups each consisting of five heads of female CDF1 mice (8 weeks old) were respectively implanted intraperitoneally with 10 cells of L1210 leukemia. After the next day of the implantation, Y-6430, ESCC and ESCC ethyl ester (hereinafter referred to ESCC-Et) in physiological saline were respectively administered once daily for seven days intraperitoneally, and the average survival days and life-prolongation ratios in each group were calculated.
(§5) All the test animals died of tumor within 30 days.

L1210 leukemia [2] = experiment: L1210 leukemia implanted intraperitoneally, oral or subcutaneous treatment, survival (Experimental Example 4); format: in vivo, female CDF1 mice; details: for Average Survival Time / Life-Prolongation Ratio (%): once daily for seven days
Description: as §1, §2, §3, §4
A plurality of groups each consisting of five female CDF1 mice (7-8 weeks old) were respectively implanted intraperitoneally with 10 cells of L1210 leukemia. After the next day of the implantation, the test animals were administered orally or subcutaneously once daily for seven days with Y-6430 or ESCC dissolved in physiological saline, and the average survival days and life-prolongation ratios in each group were calculated.
as §5

P388 leukemia = P388 leukemia implanted intraperitoneally, survival (Experimental Example 2); format: in vivo, female CDF1 mice; details: for 30-day Survivors / Average Survival Time / Life-Prolongation Ratio (%): once daily for seven days
Description: as §1, §2, §3, §4
A plurality of groups each consisting of five heads of female CDF1 mice (7-8 weeks old) were respectively implanted intraperitoneally with 10^6 cells of P388 leukemia. After 24 hours, Y-6430 and ESCC were respectively administered once daily for seven days, and average survival days, life-prolongation ratios and 30-day survivors in each group were calculated.

leukemia = details: R.H. Adamson, Nature 217, 751-752 (1968); cited from earlier work

Compound: CCNC(=O)SC[C@H](N)C(=O)O [ESCC, S-ethylcarbamoyl-L-cysteine, reference compound]
- effect against experimental tumors (experimental tumors): more excellent effect than S-carbamoyl-L-cysteine
- Average Survival Time (L1210 leukemia [1]; 50 mg/kg/day i.p.): 8.0 days
- Life-Prolongation Ratio (%) (L1210 leukemia [1]; 50 mg/kg/day i.p.): 108%
- Average Survival Time (L1210 leukemia [1]; 100 mg/kg/day i.p.): 8.0 days
- Life-Prolongation Ratio (%) (L1210 leukemia [1]; 100 mg/kg/day i.p.): 108%
- Average Survival Time (L1210 leukemia [1]; 250 mg/kg/day i.p.): 9.0 days
- Life-Prolongation Ratio (%) (L1210 leukemia [1]; 250 mg/kg/day i.p.): 122%
- Average Survival Time (L1210 leukemia [1]; 500 mg/kg/day i.p.): 9.0 days
- Life-Prolongation Ratio (%) (L1210 leukemia [1]; 500 mg/kg/day i.p.): 122%
- effectiveness against L1210 leukemia (L1210 leukemia [1]): ineffective
- Average Survival Time (L1210 leukemia [2]; 100 mg/kg/day s.c.): 8.0 days
- Life-Prolongation Ratio (%) (L1210 leukemia [2]; 100 mg/kg/day s.c.): 100%
- Average Survival Time (L1210 leukemia [2]; 250 mg/kg/day s.c.): 8.0 days
- Life-Prolongation Ratio (%) (L1210 leukemia [2]; 250 mg/kg/day s.c.): 100%
- Average Survival Time (L1210 leukemia [2]; 500 mg/kg/day p.o.): 8.0 days
- Life-Prolongation Ratio (%) (L1210 leukemia [2]; 500 mg/kg/day p.o.): 98%
- Average Survival Time (L1210 leukemia [2]; 500 mg/kg/day s.c.): 8.0 days
- Life-Prolongation Ratio (%) (L1210 leukemia [2]; 500 mg/kg/day s.c.): 100%
- Average Survival Time (L1210 leukemia [2]; 1,000 mg/kg/day p.o.): 9.2 days
- Life-Prolongation Ratio (%) (L1210 leukemia [2]; 1,000 mg/kg/day p.o.): 112%
- Average Survival Time (L1210 leukemia [2]; 2,000 mg/kg/day p.o.): 9.6 days
- Life-Prolongation Ratio (%) (L1210 leukemia [2]; 2,000 mg/kg/day p.o.): 117%
- effectiveness against L1210 leukemia (L1210 leukemia [2]; oral and subcutaneous administration): ineffective
- 30-day Survivors (P388 leukemia; 100 mg/kg/day p.o.): 0/5
- Average Survival Time (P388 leukemia; 100 mg/kg/day p.o.): 10.2 days
- Life-Prolongation Ratio (%) (P388 leukemia; 100 mg/kg/day p.o.): 102%
- 30-day Survivors (P388 leukemia; 250 mg/kg/day p.o.): 0/5
- Average Survival Time (P388 leukemia; 250 mg/kg/day p.o.): 10.8 days
- Life-Prolongation Ratio (%) (P388 leukemia; 250 mg/kg/day p.o.): 108%
- 30-day Survivors (P388 leukemia; 500 mg/kg/day p.o.): 0/5
- Average Survival Time (P388 leukemia; 500 mg/kg/day p.o.): 10.8 days
- Life-Prolongation Ratio (%) (P388 leukemia; 500 mg/kg/day p.o.): 108%
- 30-day Survivors (P388 leukemia; 1,000 mg/kg/day p.o.): 0/5
- Average Survival Time (P388 leukemia; 1,000 mg/kg/day p.o.): 12.6 days
- Life-Prolongation Ratio (%) (P388 leukemia; 1,000 mg/kg/day p.o.): 126%
- effectiveness against P388 leukemia (P388 leukemia; summary of Tables 2 and 3, T/C equal to or greater than 125% regarded as effective): only slightly effective

Compound: CCNC(=O)SC[C@H](N)C(=O)OCC [ESCC-Et, ESCC ethyl ester]
- Average Survival Time (L1210 leukemia [1]; 50 mg/kg/day i.p.): 8.2 days
- Life-Prolongation Ratio (%) (L1210 leukemia [1]; 50 mg/kg/day i.p.): 103%
- Average Survival Time (L1210 leukemia [1]; 100 mg/kg/day i.p.): 8.4 days
- Life-Prolongation Ratio (%) (L1210 leukemia [1]; 100 mg/kg/day i.p.): 105%
- Average Survival Time (L1210 leukemia [1]; 250 mg/kg/day i.p.): 9.0 days
- Life-Prolongation Ratio (%) (L1210 leukemia [1]; 250 mg/kg/day i.p.): 113%
- Average Survival Time (L1210 leukemia [1]; 500 mg/kg/day i.p.): 9.0 days
- Life-Prolongation Ratio (%) (L1210 leukemia [1]; 500 mg/kg/day i.p.): 113%
- effectiveness against L1210 leukemia (L1210 leukemia [1]): ineffective

Compound: NC(=O)SC[C@H](N)C(=O)O [S-carbamoyl-L-cysteine]
- effectiveness against leukemia in mice (leukemia): effective
